Structure (SMILES)	melting point
CCCc1c(N)ccc2c(=O)cc(C(=O)OCC)oc12	84 to 87 °C
C1CCC2NC3NC4CCCCC4NC3NC2C1 (stereo unspecified)	148 to 155 °C
CN(C)C(N)=NC(=O)C(Br)c1c(Cl)cccc1Cl (stereo unspecified)	142 to 145 °C
Cc1nn(-c2ccc(C(F)(F)F)cn2)cc1C=O	226 to 227 °C
O=[N+]([O-])c1ccc(CSC(=S)N2Cc3[nH]c4ccccc4c3CC2CO)cc1 (stereo unspecified)	193 to 194 °C
COCC1CN(c2ccc(C3CCC(OC(C)=O)CC3)cc2)C(=O)O1 (racemic)	78 to 79 °C
CC1Cc2cc(N)ccc2C1=O (stereo unspecified)	151 to 152 °C
COc1ccc(S(=O)(=O)Nc2cccnc2Nc2ccc(O)c(C)c2)cc1	89 to 91 °C
COC(=O)Nc1nc2cc(F)c(OC(C)c3c(Cl)ccc(F)c3Cl)cc2[nH]1 (stereo unspecified)	245 to 250 °C
O=C(Nc1cccc2[nH]ccc12)c1ccccc1OCCCCl	140 °C
Cc1cc(C)cc(-c2nc(NC(=O)C3CCCC3)sc2-c2ccncc2)c1	275 to 278 °C
CCC(CC(Oc1ccccc1)C(=O)O)Oc1ccc(Cl)cc1 (stereo unspecified)	94 °C
COc1cc(OC)c(N2CCCC2)cc1/C=C/C(=O)c1ccc(S(=O)(=O)NCCCn2ccnc2)cc1	140 to 143 °C
O=C(NCCCCC(NC(=O)OCC1c2ccccc2-c2ccccc21)C(=O)Oc1c(F)c(F)c(F)c(F)c1F)OCC1c2ccccc2Oc2ccccc21 (stereo unspecified)	150 to 152 °C
N#Cc1c(-c2ccccc2)c(-c2ccccc2)nn(CCC(=O)NCC(=O)O)c1=O	113 to 115 °C
COc1cc(NC2=C(Cl)C(=O)c3ccccc3C2=O)ccc1S(=O)(=O)Nc1ccc(C)cc1	186 to 189 °C
Cc1c(-c2ccncc2)[nH]c(-c2ccncc2)c1C(=O)OC(C)C	218 to 221 °C
CC12CCC(C1)C(C)(C)C2(CCO)SN=O (stereo unspecified)	81 to 85 °C
CCCCc1nc2c(N)nc3ccccc3c2n1CCCNS(=O)(=O)c1cccc2c(N(C)C)cccc12	216 to 218 °C
COc1cc(C(=O)N2Cc3cccn3Cc3ccccc32)ccc1-n1c(C)ccc1C	141 to 144 °C
O=C(O)[C@@H]1CSC(c2ccccc2O)N1C(=O)CCS (stereo partly specified)	146 to 148 °C
CCOC(=O)c1cc2c(C(=O)CN(Cc3ccccc3)C(C)CC(=O)OC)ccc(OCc3ccccc3)c2[nH]1 (stereo unspecified)	120 to 123 °C
CCCC[C@@H](C)[C@@H](O)[C@H](NC)C(=O)O	248 to 249 °C
COc1ccc(-c2ccc(OC)c(C34CC5CC(CC(C5)C3)C4)c2)cc1C12CC3CC(CC(C3)C1)C2	288 to 289 °C

Structure (SMILES)	melting point
Nc1nc2c(s1)CCN(CC=Cc1ccccc1)CC2	120 to 124 °C
O=C1NCC(CN2C(=O)C3(COc4cc5c(cc43)OCO5)c3ccccc32)O1 (stereo unspecified)	195 to 202 °C
COC(=O)Cc1cn(-c2ccccc2)nc1OCc1ccc(OCc2nc(-c3ccccc3)oc2C)c(OC)c1	107 to 108 °C
CC(=O)c1cc(NC(=O)NCCCN(CCCNC(=O)Nc2cc(C(C)=O)cc(C(C)=O)c2)CCCNC(=O)Nc2cc(C(C)=O)cc(C(C)=O)c2)cc(C(C)=O)c1	147 to 148 °C
CCN1CCc2ccc(Nc3ncc(Cl)c(NCC(C)(C)NS(C)(=O)=O)n3)cc2CC1	118 to 121 °C
O=C(O)c1cc(NC(C(=O)O)c2ccccc2Cl)c(Cl)cc1Cl (stereo unspecified)	210 °C
NC(=O)c1nnc2n1-c1ccc(Cl)cc1C(c1ccccc1Cl)=NC2	226 to 228 °C
O=C(O)C1(CCc2ccc(Cl)cc2)CCN(CC2CC2)CC1	250 °C
CNS(=O)(=O)c1cccc(-c2ccc3cccc(N4CCN(C)CC4)c3c2)c1	148 °C
Oc1ccc2nc(Nc3ccccc3)cnc2c1	211 to 213 °C
CCSc1nc2c(N)nc(-c3ccncc3)nc2[nH]1	168 to 170 °C
CN1CCN(CCC#Cc2cc3c(Nc4ccc5[nH]ccc5c4)c(C#N)cnc3s2)CC1	195 to 197 °C
CCCCCC#CCOc1ccc2ccc(=O)oc2c1	74 to 75 °C
Cn1cnc(S(=O)(=O)N2CCSCC2)c1	154 to 155 °C
O=C(O)c1ccc(F)c(C(F)(F)F)c1F	108 to 110 °C
CCC(C)N(C)C(=O)c1cc(-c2ccccc2)c2ccsc2c1 (stereo unspecified)	84 °C
CN(C)NC(=O)N1CCC(=Cc2cc(C(C)(C)C)c(O)c(C(C)(C)C)c2)C1=O	133 to 134 °C
CC1CC(=O)C(C(=O)c2ccc(S(C)(=O)=O)cc2[N+](=O)[O-])C(=O)C1(C)C (stereo unspecified)	166 to 167 °C
O=c1[nH]c2cc(Cl)ccc2c(O)c1-c1cccc(/C=C/c2ccccc2)c1	320 to 324 °C
CC(C)(C)C(NC(=O)CCc1ccccc1)Nc1c(Nc2cccnc2Cl)c(=O)c1=O (stereo unspecified)	160 to 161 °C
CSCC(C)(C)NC(=O)c1c(NC(=O)c2cc(C(F)(F)F)nn2-c2ncccc2Cl)ccc2cn[nH]c12	100 to 105 °C
COC(=O)c1nccnc1Nc1ccc(Cl)cc1	135 to 136 °C
Oc1c(C/C=C/c2ccc(OCc3ccccc3)c(OCc3ccccc3)c2)c(OCc2ccccc2)cc(OCc2ccccc2)c1Cc1ccccc1	93 to 95 °C
CCN(C(=S)Oc1ccc(C(C)C)cc1)c1cccc(OC)n1	53 to 54 °C

Structure (SMILES)	melting point
COc1cc(OC)c(-c2ccc(N(C)CCN(C)c3ccc(-c4c(OC)cc(OC)cc4OC)nc3)cn2)c(OC)c1	264 to 265 °C
COC(=O)c1ccc(NC2CCCCC2)cc1C(=O)OC	217 to 219 °C
c1ccc(Cc2cccc3c2[nH]c2ccccc23)cc1	117 °C
O=C(O)c1cc(Cl)c(O)c(O)c1Cl	230 to 231 °C
COc1c(C)cc(C)cc1/C=C/C(=O)O	178 to 180 °C
CNC(=O)c1cccc(F)c1Nc1nc(Nc2ccc3c(c2)CCCC(=O)N3CCOC)ncc1Cl	146 to 147 °C
O=C(O)c1cc2c3ccccc3n(Cc3ccccc3)c2s1	194 to 195 °C
CSc1c(NCc2ccncc2)cnn(C(C)(C)C)c1=O	107 to 110 °C
CC12CCC(=O)C=C1CCC1C2CCC2(C)C(OC(=O)CCl)CCC12 (stereo unspecified)	125 to 126 °C
CCCCc1nc2c(C)c(Cl)cc(C(=O)O)c2n1Cc1ccc(C(=O)O)cc1	293 to 294 °C
Cc1c(C2=CCC(Cc3ccccc3)(N(C)C)CC2)[nH]c2ccc(C(F)(F)F)cc12 (stereo unspecified)	119 to 120 °C
Cc1nnc(CN2C(=O)c3ccccc3C2=O)n1-c1ccc(Cl)cc1C(=O)c1ccccc1Cl	262 to 265 °C
COC(=O)[C@H](Cc1ccc(O[Si](C)(C)C(C)(C)C)cc1)NC(=O)Nc1n[nH]c(=S)s1	139 to 142 °C
CCOC(=O)CN1C(=O)c2cccc3c(Sc4ccccc4)ccc(c23)C1=O	132 to 134 °C
O=C(O)C1=Cc2cc(Cl)cc(C#Cc3ccc(Cl)cc3)c2OC1C(F)(F)F (stereo unspecified)	210 to 211 °C
CCOC(=O)Cc1sc(Sc2cc3ccccc3c(Cl)n2)nc1C	115 to 117 °C
N#Cc1cc2ccc(O)cc2s1	195 to 198 °C
O=C1Cc2ccccc2N1c1c(Cl)cc(OCc2ccc3ccccc3n2)cc1Cl	158 °C
NNc1ccnc(-c2cccc(I)c2)n1	179 to 181 °C
COC(=O)N[C@H]1CC[C@H](CCN2CCN(c3cccc(Cl)c3Cl)CC2)CC1	143 to 147 °C
CC1(C)COC(=O)N1c1nc(-c2ccc(C#N)c(F)c2)cs1	204 to 206 °C
Cc1c(CCO)c2cc(OCc3csc(-c4ccccc4)n3)ccc2n1Cc1ccccc1	114 to 116 °C
CNn1c(C)nn(C(=O)NC(C)(C)CCl)c1=O	93 °C
NC(=O)N1C(=O)C(C(=O)c2ccco2)c2ccc(F)cc21 (stereo unspecified)	231 to 235 °C

Structure (SMILES)	melting point
N#CCNCCNCC#N	41 to 42 °C
C[C@]12CC(=C(F)F)[C@H]3[C@@H](CCC4=CC(=O)CC[C@@H]43)[C@@H]1CCC2=O	158 to 164 °C
CC(=O)Nc1ccc([N+](=O)[O-])c(N2CCN(C(C)=O)CC2)n1	189 to 193 °C
O=[N+]([O-])c1ccc2c(c1)CC(Cl)c1ccccc1S2 (stereo unspecified)	74 to 77 °C
Cc1noc(NS(=O)(=O)c2ccccc2-c2ccc(-c3ncco3)cc2Cn2ccc(-c3ccccc3)n2)c1C	164 to 168 °C
CCOc1ccc(-n2cccc2-c2ccc(S(N)(=O)=O)cc2)cc1	126 to 128 °C
NS(=O)(=O)c1ccc(-n2nc(C(F)(F)F)cc2-c2ccc(-c3cscn3)cc2)cc1	188 to 190 °C
CNC(=O)c1cc2[nH]c(C)nc2c2c1CCC1(Cc3ccccc3C1)N2	240 to 241 °C
CN(C(CCn1c(=O)cc(Cl)n(C)c1=O)C(=O)O)S(=O)(=O)c1ccc(Oc2ccccc2)cc1 (stereo unspecified)	115 to 117 °C
O=C(NCCCCCCO)Oc1ccc(Oc2ccccc2)cc1	72 to 75 °C
C[C@@H](n1cnc2cc(-c3ccc(C(N)=O)cc3)sc2c1=O)[C@](O)(Cn1cncn1)c1ccc(F)cc1F	280 to 285 °C
CC(c1cccc(-c2c[nH]nn2)c1)C(O)(Cn1cncn1)c1ccc(F)cc1F (stereo unspecified)	168 to 170 °C
Oc1ccc(Br)cc1-c1ccc2nonc2c1	179 to 181 °C
CC(C)c1ccc([N+](=O)[O-])c(C(C)C)c1NC(=O)CN1CCN(CCCSc2nc3ccccc3o2)CC1	156 to 158 °C
COc1nc(C)nc(NC(=O)NS(=O)(=O)C(C)S(=O)(=O)N2CCCC2)n1 (stereo unspecified)	136 to 137 °C
OCc1nn(-c2ccccc2)c2c1CCC2	94 to 95 °C
O=C(NCc1ncco1)c1ccnc(N2CCN(Cc3ccc(F)cc3)C2=O)c1	148 to 150 °C
O=C(O)c1nn(-c2ccc(Cl)cc2)c2c1CCCC2	218 °C
O=C(C1CCCCC1)N1c2ccc(F)cc2CCC1CN1CCN(c2ccccc2OCC(F)(F)F)CC1 (stereo unspecified)	51 °C
CC(C)OC(=O)N1CCC(NC(=O)N2CCn3c(c(C(N)=O)c(Cl)c3-c3ccccc3)C2)CC1	166 to 167 °C
CCC1(CCCCN2CCN(c3ccc(Cl)cc3)CC2)C(=O)Nc2cc(F)ccc21 (stereo unspecified)	145 to 147 °C
CCc1nc2c(Cl)cc(F)c(-n3c(=O)cc(C(F)(F)F)[nH]c3=O)c2s1	178 to 180 °C
COCc1c(-c2ccccc2)ncc2[nH]c3ccc(OCc4ccccc4)cc3c12	189 to 191 °C
O[C@@H]1CN(CCc2ccccc2)CC[C@H]1c1ccccc1 (relative stereo)	115 to 119 °C

— a melting point compilation (Tetko et al.; mined from patent text by program, amines drawn as free bases though some values may be those of a salt)
